Test results taken from patent US8778966B2, “Quinolinone derivatives as PARP and tank inhibitors” (Janssen Pharmaceutica, NV, priority 2007, dated 2014).

Columns and labels:
[1] = target: T1, Human PARP-1 enzyme (Homo sapiens, UniProt P09874); assay: In vitro Scintillation Proximity Assay (SPA) for PARP-1 inhibitory activity; format: biochemical; details: read-out: in vitro SPA assay PARP-1 pIC50 (converted)
T1 construct: purchased Trevigen
Protocol: Compounds of the present invention were tested in an in vitro assay based on SPA technology (proprietary to GE healthcare).
In principle, the assay relies upon the well established SPA technology for the detection of poly(ADP-ribosyl)ation of biotinylated target proteins, i.e histones. This ribosylation is induced using nicked DNA activated PARP-1 enzyme and [^3H]-nicotinamide adenine dinucleotide ([^3H]-NAD^+) as ADP-ribosyl donor.
Histones (type II-A, supplier: Sigma) were biotinylated using the biotinylation kit of Amersham and stored aliquoted at −20° C. A stock solution of 100 mg/ml SPA poly(vinyl toluene) (PVT) beads (supplier: Amersham) was made in PBS. A stock solution of 61.6 nM [^3H]-NAD^+ was made by adding [^3H]-NAD^+ (0.1 mCi/ml, supplier: Perkin Elmer) to incubation buffer (50 mM Tris/HCl, pH 8; 0.2 mM DTT; 4 mM MgCl2). A solution of 4 mM NAD^+ (supplier: Sigma) was made. Human PARP-1 enzyme was obtained from Trevigen. Biotinylated histones and PVT-SPA beads were mixed and pre-incubated for 30 min. at room temperature. PARP-1 enzyme (concentration was lot dependent) was mixed with the nicked DNA and the mixture was pre-incubated for 30 min. at 4° C. Equal parts of this histones/PVT-SPA beads solution and PARP-1 enzyme/DNA solution were mixed and 75 μl of this mixture together with 1 μl of compound in DMSO and 25 μl of [^3H]-NAD^+ was added per well into a 96-well microtiterplate. The final concentrations in the incubation mixture were 2 μg/ml for the biotinylated histones, 2 mg/ml for the PVT-SPA beads, 0.25 μg/ml for the nicked DNA and between 0.1-0.2 μg/ml for the PARP-1 enzyme. After incubation of the mixture for 20 min. at room temperature, the reaction was terminated by adding 100 μl of 4 mM NAD^+ in water (final concentration 2 mM) and plates were mixed. The beads were sedimented by centrifugation (10 min, 800 rpm). and plates transferred to a TopCountNXT™ (Packard) for scintillation counting, values were expressed as counts per minute (cpm). For each experiment, controls (containing PARP-1 enzyme and DMSO without compound), a blank incubation (containing DMSO but no PARP-1 enzyme, no DNA or compound) and samples (containing PARP-1 enzyme, DNA and compound dissolved in DMSO) were run in parallel. All compounds tested were dissolved and eventually further diluted in DMSO. A dose-response curve was made wherein the compounds were tested at concentrations between 10^−5M and 3×10^−9M. In each test, the blank value was subtracted from both the control and the sample values. The control sample represented maximal PARP-1 enzyme activity. For each sample, the amount of cpm was expressed as a percentage of the mean cpm value of the controls. When appropriate, IC50-values (concentration of the drug, needed to reduce the PARP-1 enzyme activity to 50% of the control) were computed using linear interpolation between the experimental points just above and below the 50% level. Herein the effects of test compounds are expressed as pIC50 (the negative log value of the IC50-value). As a reference compound, 4-amino-1,8-naphthalimide was included to validate the SPA assay.

[2] = tested on: PC-3 cells; assay: Antiproliferative activity, Alamar Blue assay, PC-3 cells; format: cell-based, human; details: Homo sapiens, PC-3, PC3 cells; read-out: PC3 antiproliferative activity pIC50 (converted)
Protocol: Human prostate cancer PC-3 cells obtained from the ATCC were cultured in HAM′S F12 medium supplemented with 1 mM Sodium Pyruvate, 1.5 g/L Sodium Bicarbonate, 50 μg/ml gentamicin, non-essential amino acids and 10% fetal calf serum.
(§1) Resazurin was purchased from Aldrich (Prod. No. 199303). Potassium ferrocyanide, potassium ferricyanide, KH2PO4 and K2HPO4 were purchased from Sigma (Prod. Nos. P9387, P8131, P5655 and P8281, respectively).
(§2) Potassium Phosphate Buffer 0.1 M (PPB) was made as follows: 2.72 gram KH2PO4 and 13.86 gram K2HPO4 were dissolved in 500 ml milli-Q H2O, the pH was adjusted to pH 7.4 and the volume was brought to 1 litre with milli-Q H2O; the buffer was filter sterilised and stored at room temperature. Resazurin stock solution (PPB-A) was prepared fresh by dissolving 45 mg resazurin in 15 ml PBS. 30 mM potassium ferricyanide (PPB-B) was prepared by dissolving 0.987 gram potassium ferricyanide in 100 ml PPB. 30 mM potassium ferrocyanide (PPB-C) was prepared by dissolving 1.266 gram potassium ferrocyanide in 100 ml PPB.
(§3) Mixture of PPB-A, PPB-B and PPB-C was prepared by mixing equal volumes of the respective solutions. Resazurin work solution (herein termed “Alamar Blue” solution) was prepared by diluting said mixture 20×(vol/vol) in PPB and filter sterilising; the Alamar Blue solution could be kept at 4° C. for a maximum of 2 weeks.
(§4) For experiments in 384 wells plates the cells were seeded at a density of 4.5×10^3 cells/ml in Falcon 384-well culture plates (Life Technologies, Merelbeke, Belgium), black with clear bottom, in 45 μl culture medium. Cells were allowed to adhere to plastic for 24 hr. The tested compound was pre-diluted (1/50 in culture medium) and 5 μl pre-diluted compound was added to the wells. Following 4-day incubation, 10 μl of the Alamar Blue solution was added to each well and the cells were further incubated for 4 hrs (HCT116) or 24 hrs (PC-3) at 37° C. The fluorescence intensity was measured for each well on a Fluorescence plate reader (Fluorskan, Labsystems, 540 nm excitation and 590 nm emission)
(§5) The antiproliferative activity was calculated as percentage of remaining viable cells in treated versus control (untreated cells) conditions. Within an experiment, the result for each experimental condition is the mean of 3 replicate wells. When appropriate, the experiments were repeated to establish full concentration-response curves. When appropriate, IC50-values (concentration of the drug, needed to reduce cell growth to 50% of the control) were computed using probit analysis for graded data (Finney, D. J., Probit Analyses, 2nd Ed. Chapter 10, Graded Responses, Cambridge University Press, Cambridge 1962). Herein the effects of test compounds are expressed as pIC50 (the negative log value of the IC50-value) (see Table 2).

[3] = tested on: HCT116 cells; assay: Antiproliferative activity, Alamar Blue assay, HCT116 cells; format: cell-based, human; details: Homo sapiens, HCT-116, HCT116 cells; read-out: HCT116 antiproliferative activity pIC50 (converted)
Protocol: Human colon carcinoma HCT116 cells obtained from the ATCC were cultured in McCoy's 5 A medium supplemented with 2 mM L-Glutamine, 50 μg/ml gentamicin and 10% heat inactivated fetal calf serum.
as §1, §2, §3, §4, §5

[4] = tested on: PC3 cells; assay: EB1 Comet (microtubule disruption) assay; format: cell-based, human; details: Homo sapiens, PC-3, 1 h, 1 hour treatment, read-out: EB1 pLAC (converted)
Protocol: The Eb1 Comet assay relies on the detection of the Eb1 protein at the plus end of polymerizing microtubules (Mimori-Kiyosue, 2000) using indirect immunofluorescence. Disruption of microtubule dynamics through de-polymerization or stabilization results in a de-localization of Eb1 from the growing microtubule ends and this is visualized by the disappearance of Eb1 containing cytoplasmic foci.
Briefly, human prostate cancer PC3 cells obtained from the American Type Culture Collection were grown in 96-well plates (Greiner, cat. no. 655090) in HAM's F12 medium as recommended by the provider (ATCC). The cells were treated for 1 hour at 37° C. with compounds dissolved in DMSO (0.6% final DMSO concentration). The culture medium was then removed by aspiration and the cells were fixed by adding cold methanol (−20 C). After a 15 min. incubation at −20 C, the cells were washed twice with DPBS (Gibco) containing 0.5% Triton X-100. Mouse Eb1 antibody (BD Transduction Laboratories, cat. no. 610534) was added to the cells (1/250 dilution in DPBS containing 1% BSA) and incubated overnight at room temperature. The antibody was subsequently removed and the cells washed twice with DPBS, 0.5% Triton X-100. Secondary goat anti-mouse antibody conjugated to Alexa 488 fluorescent dye (Molecular Probes) was added at a 1/500 dilution in DPBS, 1% BSA and incubated for 1 hour at 37 C. The cells were washed twice with DPBS, 0.5% Triton X-100 and then DPBS containing 0.5% Triton X-100 and 1/5000 Hoechst 33342 (Molecular Probes) was added. Microscopy based Eb1 foci visualization was carried out using an IN Cell Analyser 1000 (Amersham Biosciences) using a 20× objective. Compound dependent microtubule disruption was visually determined by the disappearance in Eb1 foci. The lowest active concentration (LAC) was determined as the concentration where Eb1 foci were absent in at least 50% of the treated cells.

T1 sequence (P09874 whole entry): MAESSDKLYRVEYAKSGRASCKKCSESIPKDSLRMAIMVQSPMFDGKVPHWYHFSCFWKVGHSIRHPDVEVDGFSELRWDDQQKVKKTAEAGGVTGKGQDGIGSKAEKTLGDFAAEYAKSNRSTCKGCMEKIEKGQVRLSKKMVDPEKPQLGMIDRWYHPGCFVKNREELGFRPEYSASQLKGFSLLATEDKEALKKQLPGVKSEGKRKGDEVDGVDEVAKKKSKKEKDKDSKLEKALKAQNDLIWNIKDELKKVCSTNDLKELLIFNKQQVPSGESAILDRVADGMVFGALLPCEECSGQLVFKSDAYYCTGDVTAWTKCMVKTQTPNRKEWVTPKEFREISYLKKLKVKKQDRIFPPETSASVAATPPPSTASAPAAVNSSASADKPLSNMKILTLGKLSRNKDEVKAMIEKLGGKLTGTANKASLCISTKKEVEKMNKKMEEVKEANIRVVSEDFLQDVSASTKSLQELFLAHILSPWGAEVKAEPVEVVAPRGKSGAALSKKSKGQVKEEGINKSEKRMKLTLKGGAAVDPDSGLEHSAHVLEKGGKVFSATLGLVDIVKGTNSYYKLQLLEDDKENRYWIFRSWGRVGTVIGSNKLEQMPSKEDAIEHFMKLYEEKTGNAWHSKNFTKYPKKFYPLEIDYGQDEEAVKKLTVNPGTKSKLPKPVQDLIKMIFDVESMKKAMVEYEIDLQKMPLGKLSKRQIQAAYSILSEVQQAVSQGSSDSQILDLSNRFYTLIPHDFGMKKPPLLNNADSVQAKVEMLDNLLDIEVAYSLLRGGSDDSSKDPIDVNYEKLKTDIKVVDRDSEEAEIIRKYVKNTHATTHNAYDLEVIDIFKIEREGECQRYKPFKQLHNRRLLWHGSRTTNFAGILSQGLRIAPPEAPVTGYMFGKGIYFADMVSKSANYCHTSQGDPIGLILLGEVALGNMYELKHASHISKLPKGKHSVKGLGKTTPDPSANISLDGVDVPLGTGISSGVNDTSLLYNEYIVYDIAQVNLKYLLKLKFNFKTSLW

melting point [°C]	IC50 [1] [µM]	IC50 [2] [µM]	IC50 [3] [µM]	SMILES	minimal effective concentration [4] [µM]
150				CCc1cc2ccc(C(C)(C#N)Cc3cccc(CC#N)c3)cc2[nH]c1=O (centres unmarked)	
174				CCc1cc2ccc(C(C)(C#N)Cc3cccc(C#N)c3C)cc2[nH]c1=O (centres unmarked) [Compound 4]	
	0.398	5.01	3.98	Cc1cc2ccc(C(C)(C#N)Cc3cccc(C#CC(C)(C)O)n3)cc2[nH]c1=O (centres unmarked) [Compound 401]	3.16

Continued, molecule first:

SMILES	melting point [°C]	IC50 [1] [µM]	IC50 [2] [µM]	IC50 [3] [µM]	minimal effective concentration [4] [µM]
CCc1cc2ccc(C(C)(C#N)Cc3ccc(OCCCN4CCOCC4)c(C#N)c3)cc2[nH]c1=O (centres unmarked) [Compound 5]	153				
Cc1cc2ccc([C@](C)(C#N)[C@H]3CCCc4ccccc43)cc2[nH]c1=O [Compound 383]		0.501	1.26	0.501	3.16
